Results from patent US11186627B2 (priority 2013, dated 2021).
“And” between values parts separate entries of the source, which are not always exact repeats. Identical values can stand only once.

Experiments:
[1] = system: A/California/7/09 (H1N1) (H1-CA09); settings: mouse, in vivo
[2] = system: ANN/1203/04 (H5N1) highly pathogenic avian influenza virus; set-up: species or system ferret; settings: in vivo, 25 mg/kg

**Q.** What does the source list for `CCOC(=O)C1=C[C@@H](OC(CC)CC)[C@H](NC(C)=O)[C@@H](N)C1` [oseltamivir]?
**A.** survival [1]: succumbed to the infection; mean day of death [2]: 12 and 9; survival rate [2]: 100%
